Molecular target: PD-1/PD-L1 (Homo sapiens (Human), UniProt Q9NZQ7)
Assay: PD-1/PD-L1 biochemical protein-protein interaction assay (ALPHA)
Settings: 0.3 nM His tagged PD-L1, 2.5 nM biotinylated Fc-PD-1, 60 minutes at 25° C., read-out: IC50 PD-L1-PD1
Procedure: Binding of the protein pairs is measured using a bead based Amplified Luminescent Proximity Homogeneous Assay (ALPHA) platform. Binding of each protein pair results in proximity of the donor and acceptor beads which leads to an increase in ALPHA signal. […] Assays are performed in 25 mM Hepes (pH 7.4), 150 mM NaCl, 3.4 mM EDTA, 0.005% Tween 20, and 0.01% BSA. […] After an assay reaction time of 60 minutes at 25° C., binding was measured with addition of 20 μg/mL ALPHA assay acceptor beads (anti-His coated) and 20 µg/mL ALPHA assay donor beads (streptavidin coated). IC50 values were calculated from the fit of the dose-response curves to a four-parameter equation.

Sequence of PD-1/PD-L1 (Q9NZQ7 19-238): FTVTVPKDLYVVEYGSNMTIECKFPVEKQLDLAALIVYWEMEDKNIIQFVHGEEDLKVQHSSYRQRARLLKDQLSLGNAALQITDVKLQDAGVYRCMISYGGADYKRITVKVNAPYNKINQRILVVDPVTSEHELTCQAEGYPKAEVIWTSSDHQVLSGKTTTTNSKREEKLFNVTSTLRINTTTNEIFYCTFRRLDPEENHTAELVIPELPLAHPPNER

SMILES | IC50
CN(C)c1nc(-c2cccc(-c3cccc(-c4cnc(CN5CC6(CNC(=O)C6)C5)c(N(C)C)n4)c3Cl)c2Cl)cnc1CN1CC2(CNC(=O)C2)C1 [compound 101] | 0.13 nM
CN(C)c1nc(-c2cccc(-c3cccc(-c4cnc(CN5CC6(CNC(=O)C6)C5)c(Cl)n4)c3Cl)c2Cl)cnc1CN1CC2(CNC(=O)C2)C1 [compound 102] | 0.223 nM
CN(C)c1nc(-c2cccc(-c3cccc(-c4cnc(CN5CC6(CCC(=O)N6)C5)c(N(C)C)n4)c3Cl)c2Cl)cnc1CN1CC2(CCC(=O)N2)C1 [compound 103] | 0.071 nM
CN(C)c1nc(-c2cccc(-c3cccc(-c4cnc(CN5CC6(CCC(=O)N6)C5)c(Cl)n4)c3Cl)c2Cl)cnc1CN1CC2(CCC(=O)N2)C1 [compound 104] | 0.077 nM
CN(C)c1nc(-c2cccc(-c3cccc(-c4cnc(CNC[C@@H]5CCC(=O)N5)c(N(C)C)n4)c3Cl)c2Cl)cnc1CNC[C@@H]1CCC(=O)N1 [compound 105] | 0.302 nM
CN(C)c1nc(-c2cccc(-c3cccc(-c4cnc(CNC[C@@H]5CCC(=O)N5)c(Cl)n4)c3Cl)c2Cl)cnc1CNC[C@@H]1CCC(=O)N1 [compound 106] | 0.36 nM
COC1CN(Cc2ncc(-c3cccc(-c4cccc(-c5cnc(CN6CC(OC)C6)c(Cl)n5)c4Cl)c3Cl)nc2Cl)C1 [compound 107] | 1.54 nM
OC1CN(Cc2ncc(-c3cccc(-c4cccc(-c5cnc(CN6CC(O)C6)c(Cl)n5)c4Cl)c3Cl)nc2Cl)C1 [compound 108] | 0.474 nM
O=C1CC2(CN1)CN(Cc1ncc(-c3cccc(-c4cccc(-c5cnc(CN6CC7(CNC(=O)C7)C6)c(Cl)n5)c4Cl)c3Cl)nc1Cl)C2 [compound 109] | 0.586 nM
O=C1CCC2(CN(Cc3ncc(-c4cccc(-c5cccc(-c6cnc(CN7CC8(CCC(=O)N8)C7)c(Cl)n6)c5Cl)c4Cl)nc3Cl)C2)N1 [compound 110] | 0.327 nM
O=C1CC[C@@H](CNCc2ncc(-c3cccc(-c4cccc(-c5cnc(CNC[C@@H]6CCC(=O)N6)c(Cl)n5)c4Cl)c3Cl)nc2Cl)N1 [compound 111] | 0.297 nM
COc1nc(-c2cccc(-c3cccc(-c4cnc(CN5CC(O)C5)c(OC)n4)c3Br)c2Br)cnc1CN1CC(O)C1 [compound 112] | 0.076 nM
COc1nc(-c2cccc(-c3cccc(-c4cnc(CNC[C@@H]5CCC(=O)N5)c(OC)n4)c3Br)c2Br)cnc1CNC[C@@H]1CCC(=O)N1 [compound 113] | 0.211 nM
COc1nc(-c2cccc(-c3cccc(-c4cnc(CN5CC6(CNC(=O)C6)C5)c(OC)n4)c3Cl)c2Cl)ccc1C1=NCCN1 [compound 114] | 0.064 nM
COc1nc(-c2cccc(-c3cccc(-c4cnc(CN5CC6(CCC(=O)N6)C5)c(OC)n4)c3Cl)c2Cl)ccc1C1=NCCN1 [compound 115] | 0.115 nM
COc1nc(-c2cccc(-c3cccc(-c4cnc(CN5CC(O)C5)c(OC)n4)c3Cl)c2Cl)ccc1C1=NCCN1 [compound 116] | 0.064 nM
COc1nc(-c2cccc(-c3cccc(-c4cnc(CNC[C@@H]5CCC(=O)N5)c(OC)n4)c3Cl)c2Cl)ccc1C1=NCCN1 [compound 117] | 0.281 nM
COc1nc(-c2cccc(-c3cccc(-c4cnc(CN5CC(F)C5)c(OC)n4)c3Cl)c2Cl)cnc1CN1CC(F)C1 [compound 118] | 0.715 nM
COc1nc(-c2cccc(-c3cccc(-c4cnc(C5=NCC(F)(F)CN5)c(OC)n4)c3Cl)c2Cl)cnc1C1=NCC(F)(F)CN1 [compound 119] | 0.115 nM
COc1nc(-c2cccc(-c3cccc(-c4cnc(CN5CC6(CNC(=O)C6)C5)c(OC)n4)c3Cl)c2Cl)cnc1CN1CC2(CNC(=O)C2)C1 [compound 120] | 0.32 nM
COc1nc(-c2cccc(-c3cccc(-c4cnc(C5=NC[C@H](C)N5)c(OC)n4)c3Cl)c2Cl)cnc1C1=NC[C@H](C)N1 [compound 121] | 0.064 nM
COc1cc(-c2cccc(-c3cccc(-c4cnc(CN)c(OC)n4)c3Cl)c2Cl)ccc1CN [compound 122] | 1.69 nM
COc1cc(-c2cccc(-c3cccc(-c4cnc(CN5CC6(CNC(=O)C6)C5)c(OC)n4)c3Cl)c2Cl)ccc1CN1CC2(CNC(=O)C2)C1 [compound 123] | 0.112 nM
COc1cc(-c2cccc(-c3cccc(-c4cnc(CN5CC6(CCC(=O)N6)C5)c(OC)n4)c3Cl)c2Cl)ccc1CN1CC2(CCC(=O)N2)C1 [compound 124] | 0.19 nM
COc1cc(-c2cccc(-c3cccc(-c4cnc(CNC[C@@H]5CCC(=O)N5)c(OC)n4)c3Cl)c2Cl)ccc1CNC[C@@H]1CCC(=O)N1 [compound 125] | 0.225 nM
COc1nc(-c2cccc(-c3cccc(-c4cnc(CNC[C@@H]5CCC(=O)N5)c(OC)n4)c3Cl)c2Cl)ccc1CNC[C@@H]1CCC(=O)N1 [compound 126, (S)-5-((((6-(2,2′-dichloro-3′-(6-methoxy-5-(((((S)-5-oxopyrrolidin-2-yl)methyl)amino)methyl)pyrazin-2-yl)-[1,1′-biphenyl]-3-yl)-2-methoxypyridin-3-yl)methyl)amino)methyl)pyrrolidin-2-one] | 0.272 nM
COc1nc(-c2cccc(-c3cccc(-c4cnc(C5=NCC(C)(C)N5)c(OC)n4)c3Cl)c2Cl)cnc1C1=NCC(C)(C)N1 [compound 127] | 0.064 nM

SMILES | IC50
COc1nc(-c2cccc(-c3cccc(-c4cnc(C5=NCC(O)CN5)c(OC)n4)c3Cl)c2Cl)cnc1C1=NCC(O)CN1 (stereo not drawn) [compound 128] | 0.557 nM
COc1nc(-c2cccc(-c3cccc(-c4cnc(C5=NC[C@@H](C)N5)c(OC)n4)c3Cl)c2Cl)cnc1C1=NC[C@@H](C)N1 [compound 129] | 0.064 nM
COc1nc(-c2cccc(-c3cccc(-c4cnc(CN5CC[C@@H](O)C5)c(OC)n4)c3Cl)c2Cl)cnc1CN1CC[C@@H](O)C1 [compound 130] | 0.185 nM
COc1nc(-c2cccc(-c3cccc(-c4cnc(CN5CC(O)C5)c(OC)n4)c3Cl)c2Cl)cnc1CN1CC(O)C1 [compound 131] | 0.309 nM
COc1nc(-c2cccc(-c3cccc(-c4cnc(CN5CC[C@H](O)C5)c(OC)n4)c3Cl)c2Cl)cnc1CN1CC[C@H](O)C1 [compound 132] | 0.753 nM
COc1nc(-c2cccc(-c3cccc(-c4cnc(C5=NC[C@H](CO)N5)c(OC)n4)c3Cl)c2Cl)cnc1C1=NC[C@H](CO)N1 [compound 133] | 0.064 nM
COc1nc(-c2cccc(-c3cccc(-c4cnc(C5=NC[C@@H](CO)N5)c(OC)n4)c3Cl)c2Cl)cnc1C1=NC[C@@H](CO)N1 [compound 134] | 0.064 nM
COc1nc(-c2cccc(-c3cccc(-c4cnc(CN)c(OC)n4)c3Cl)c2Cl)cnc1CN [compound 135] | 0.733 nM
COc1nc(-c2cccc(-c3cccc(-c4cnc(CN5CC6(CCC(=O)N6)C5)c(OC)n4)c3Cl)c2Cl)cnc1CN1CC2(CCC(=O)N2)C1 [compound 136] | 0.147 nM
COc1nc(-c2cccc(-c3cccc(-c4cnc(CNC[C@@H](O)CC(=O)O)c(OC)n4)c3Cl)c2Cl)cnc1CNC[C@@H](O)CC(=O)O [compound 137] | 0.168 nM
COc1nc(-c2cccc(-c3cccc(-c4cnc(CNCCO)c(OC)n4)c3Cl)c2Cl)cnc1CNCCO [compound 140] | 0.26 nM
COc1nc(-c2cccc(-c3cccc(-c4cnc(C5=NCCN5)c(OC)n4)c3Cl)c2Cl)cnc1C1=NCCN1 [compound 141] | 0.064 nM
COc1nc(-c2cccc(-c3cccc(-c4cnc(CN5CC[C@](C)(O)C5)c(OC)n4)c3Cl)c2Cl)cnc1CN1CC[C@](C)(O)C1 [compound 142] | 0.2 nM
COc1nc(-c2cccc(-c3cccc(-c4cnc(CN[C@@H]5CCOC5)c(OC)n4)c3Cl)c2Cl)cnc1CN[C@@H]1CCOC1 [compound 143] | 0.41 nM
COc1nc(-c2cccc(-c3cccc(-c4cnc(CN[C@H]5CCOC5)c(OC)n4)c3Cl)c2Cl)cnc1CN[C@H]1CCOC1 [compound 144] | 0.24 nM
COc1nc(-c2cccc(-c3cccc(-c4cnc(CN5CC(CO)C5)c(OC)n4)c3Cl)c2Cl)cnc1CN1CC(CO)C1 [compound 145] | 0.1 nM
COc1nc(-c2cccc(-c3cccc(-c4cnc(CN5CCC(C)(O)C5)c(OC)n4)c3Cl)c2Cl)cnc1CN1CCC(C)(O)C1 (stereo not drawn) [compound 146] | 0.13 nM
COc1nc(-c2cccc(-c3cccc(-c4cnc(CN5CC(C)(O)C5)c(OC)n4)c3Cl)c2Cl)cnc1CN1CC(C)(O)C1 [compound 147] | 0.06 nM
COc1nc(-c2cccc(-c3cccc(-c4cnc(CN5CC(C)(CO)C5)c(OC)n4)c3Cl)c2Cl)cnc1CN1CC(C)(CO)C1 [compound 148] | 0.06 nM
COc1nc(-c2cccc(-c3cccc(-c4cnc(CN[C@H]5C[C@H](CO)C5)c(OC)n4)c3Cl)c2Cl)cnc1CN[C@H]1C[C@H](CO)C1 [compound 149] | 0.27 nM
COc1nc(-c2cccc(-c3cccc(-c4cnc(CN[C@H]5C[C@@H](CO)C5)c(OC)n4)c3Cl)c2Cl)cnc1CN[C@H]1C[C@@H](CO)C1 [compound 150] | 0.2 nM
COc1nc(-c2cccc(-c3cccc(-c4ccc(CN5CC6(CCC(=O)N6)C5)c(C#N)c4)c3Cl)c2Cl)cnc1CNC[C@@H]1CCC(=O)N1 [compound 151] | 0.684 nM
COc1nc(-c2cccc(-c3cccc(-c4ccc(CNC[C@@H]5CCC(=O)N5)c(C#N)c4)c3Cl)c2Cl)cnc1CNC[C@@H]1CCC(=O)N1 [compound 152] | 0.073 nM
COc1nc(-c2cccc(-c3cccc(-c4ccc(CN5CC(O)C5)c(C#N)c4)c3Cl)c2Cl)cnc1CNC[C@@H]1CCC(=O)N1 [compound 153] | 0.396 nM
COc1nc(-c2cccc(-c3cccc(-c4ccc(CN5CC(C)(CO)C5)c(C#N)c4)c3Cl)c2Cl)cnc1CNC[C@@H]1CCC(=O)N1 [compound 154] | 0.126 nM
COc1nc(-c2cccc(-c3cccc(-c4cnc(CNC[C@@H]5CCC(=O)N5)c(OC)n4)c3Cl)c2Cl)ccc1CNCc1ccc2[nH]c(C)cc2c1 [compound 155] | 1.65 nM
COc1nc(-c2cccc(-c3cccc(-c4cnc(CNC[C@@H]5CCC(=O)N5)c(OC)n4)c3Cl)c2Cl)ccc1CN1CC(C)(CO)C1 [compound 156] | 0.084 nM

— US10710986B2, “PD-1/PD-L1 inhibitors” (Gilead Sciences, Inc., priority 2018, dated 2020)
